Series [1] deals with MetAP2 (Homo sapiens, UniProt P50579). Nature of the series: MetAp2 enzymatic assay, L-Met-AMC substrate (Experimental Set-Up 1). It counts as biochemical. The protocol: Quantitative MetAP2 activity assay by N-terminal cleavage of substrate 7-amino-4-methyl-courmarin was performed as follows: The activity of MetAP2 was measured using fluorescent peptide substrate L-Met-AMC (Santa Cruz Biotechnology, Inc, sc-207807) as described by Garrabrant et al. (Angiogenesis 7: 91-96, 2004). Briefly, the reaction (100 μl final) was initiated by adding 0.5 μg of MetAP2 or 5 μg HUVEC homogenate to reaction buffer containing 50 mM HEPES (pH 7.4), 100 mM NaCl, 0.1 mM CoCl2, 1 mg/ml PEG6000, and 250 μM L-Met-AMC substrate. The assay was prepared in black flat-bottomed 96-well microtiter plates and fluorescence was measured every 20 s over a period of 60 min at 25° C. using a microplate fluorometer (Bioteck, SynergyHT), with excitation and emission wavelengths set at 360 and 440 nm respectively. As a control the inhibition of the enzyme was obtained by incubating it with TNP-470 for 15 min before the addition of the substrate.
MetAP2, sequence (P50579 whole entry): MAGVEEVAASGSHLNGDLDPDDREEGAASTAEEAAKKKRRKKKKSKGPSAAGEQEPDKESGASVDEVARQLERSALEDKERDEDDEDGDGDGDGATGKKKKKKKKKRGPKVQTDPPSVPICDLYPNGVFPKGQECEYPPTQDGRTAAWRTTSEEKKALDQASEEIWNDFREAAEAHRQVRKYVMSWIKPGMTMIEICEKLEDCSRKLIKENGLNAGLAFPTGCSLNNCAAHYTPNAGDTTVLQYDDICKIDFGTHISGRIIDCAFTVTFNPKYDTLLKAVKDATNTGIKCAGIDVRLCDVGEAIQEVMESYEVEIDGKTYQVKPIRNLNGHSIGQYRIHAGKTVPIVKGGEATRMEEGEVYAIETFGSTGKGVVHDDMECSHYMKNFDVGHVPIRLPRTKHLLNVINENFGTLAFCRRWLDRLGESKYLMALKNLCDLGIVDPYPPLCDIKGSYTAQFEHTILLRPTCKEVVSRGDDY
The inhibitory effect of the compounds were tested in MetAp2 enzymatic assay.

Series [2] has as its target T1, MetAp2 in MDA-MB-231 cancer cells (Homo sapiens, UniProt P50579).
T1 construct: host or cells: MDA-MB-231 cell homogenate (RIPA supernatant, 5 µg protein)
Nature of the series: MetAp2 enzymatic activity in MDA-MB-231 cell homogenate. It counts as biochemical. Particulars: 2.5 μM. The protocol:
(§1) A375 and MDA-MB-231 were sub cultivated using trypsin, then centrifuge and counted. To obtain a homogenate containing an equivalent cell number, cells were resuspended in an appropriate volume of cold RIPA containing a protease inhibitor cocktail. Insoluble cellular components were removed by centrifugation at 15,000 RPM for 10 min at 4° C. The protein content of the supernatant was determined according to the Bradford protein assay using BSA as the standard.
(§2) The enzymatic assay was performed using 5 μg protein per sample as described previously. […] An increase of fluorescence, due to substrate degradation during the enzymatic assay, was measured every 20 seconds for 1 h and 30 min at 37° C. using a plate reader (Wallac 1420 VICTOR plate reader, Perkin-Elmer Life Sciences, USA). […]
(§3) A375 and MDA-MB-231 were sub-cultivated using trypsin, then centrifuged and counted. […] The protein content of the supernatant was determined according to the Bradford protein assay using BSA as the standard. […] An increase of fluorescence, due to substrate degradation during the enzymatic assay, was measured every 20 seconds for 1 h and 30 min at 37° C. using a plate reader (Wallac 1420 VICTOR plate reader, Perkin-Elmer Life Sciences, USA). […]

For series [3], the system named is Choroidal Neovascularization (CNV). Nature of the series: Laser-induced CNV in mice. The note with it: 12 μg per eye, intravitreal, 7 days. Type of series: in vivo, C57Bl/6J mice. The text has this:
Laser-induced CNV was generated by a previously described technique with some modifications. C57Bl/6J mice (6-8 weeks) were anesthetized by intraperitoneal injections of a mixture of 85% ketamine and 15% xylazine. A mixture of 0.5% tropicamide and 0.5% phenylephrine hydrochloride was applied to both eyes to dilate the pupils. Lesions were induced by a diode pumped solid state laser (0.1 s; spot size, 100 μm; power 120 mW) around the optic nerve through a slit lamp delivery system using a Nidek while a hand-held cover slide was used as a contact lens. Only lesions in which a subretinal bubble or focal serous detachment of the retina developed were used for the experiments. For this purpose, 4 burns were performed per eye while leaving a space around the optic disc. Intravitreal injections of the treatments were performed using a PLI-100 Pico-Injector following the laser procedure. After 7 days mice were euthanized and their eyes were removed and fixed in 4% paraformaldehyde for 60 min. The cornea and lens were removed, and the entire retina was carefully dissected from the eyecup Choroid.
Blood vessels were labeled using a 1:200 dilution of isolectin IB4 conjugated with Alexa Fluor 488 or lectin-FITC. The eyecup was flat-mounted in an aqua-mount with the sclera facing down and the choroid facing up. […] The CNV area (presented in μm2) in choroidal flat mount was evaluated using ImageJ software […]

Series [4] is described as follows: ERG study in mice. Type of series: in vivo. The note with it: Low dose 12 μg per eye and High dose 48 μg per eye.
Series [5] has as its system HUVECs. Nature of the series: Endothelial tube formation assay. Type of series: cell-based, human. Particulars: 12 h. The protocol: To evaluate the angiogenic effect of AD-3281, an endothelial tube formation assay was performed. HUVECs were kept in serum-free Dulbecco's modified Eagle's medium media, collected, seeded in 0.1% gelatin coated 96-well plate and monitored for 12 h using a microscope. Images were taken from 6 separated wells and analyzed using Incucyte® Live-Cell Analysis Systems.

The target of series [6] is T2, MetAp2 in A375 cancer cells (Homo sapiens, UniProt P50579).
T2 construct: host or cells: A375 cell homogenate (RIPA supernatant, 5 µg protein)
T2 sequence (P50579 whole entry): as above
Nature of the series: MetAp2 enzymatic activity in A375 cell homogenate. Type of series: biochemical. The note with it: 2.5 μM. Here is the method:
as §1, §2, §3

Each structure is given as a SMILES string. “Also recorded” adds a separate entry of the source.

T1 sequence (P50579 whole entry): as above

As to `COC1C(OC(=O)CC23CC4CC(CC(C4)C2)C3)CCC2(CO2)C1C1(C)OC1CC=C(C)C` (stereo not drawn) [AD-3281, Fumagillol-1-adamantylacetate], the “inhibitory effect in MetAp2 enzymatic assay (ranking among compounds)” value in series [1] is “most active”. Moreover, the “inhibition of MetAp2 activity in MDA-MB-231 after 10 minutes” value in series [2] (10 minutes of exposure) is reported as “Significant inhibition”. The “reduction of MetAp2 enzymatic activity in MDA-MB-231” value in series [2] (over the course of 1 h) is listed as 80%. In addition, the “effect on mouse laser induced CNV” value in series [3] is on record as 46%. The “damage to vision (ERG)” value in series [4] was “no damage to vision”. The HUVEC tube formation entry is given as “narrower tubes compared with untreated control but without preventing network formation” in series [5] (50 μM) and “impaired tubes; also recorded: prevent tube formation” in series [5] (100 μM). Besides, the “inhibition of MetAp2 activity in A375 after 10 minutes” value in series [6] (10 minutes of exposure) is “Significant inhibition”. Moreover, the “reduction of MetAp2 enzymatic activity in A375” value in series [6] (over the course of 1 h) is recorded as 64%.

The values are drawn from US20250129033A1, “METAP2 INHIBITORS AND USES THEREOF” (Yissum Research Development Company of the Hebrew …, priority 2022, published 2025).
